Assay results published in patent US10792289B2 (Horizon Orphan LLC, priority 2009, dated 2020).
Like-named read-outs stand apart in the source and are kept apart here.

Tested on: P. aeruginosa isolates
Test: Phase 2 study: MIC of P. aeruginosa isolates to levofloxacin
Format: cell-based
Settings: Pseudomonas aeruginosa
Procedure: Efficacy was evaluated by microbiologic assessment of sputum samples, time to need for anti-pseudomonal antimicrobials, the Cystic Fibrosis Questionaire-Revised (CFQ-R), and pulmonary function tests. […] Pair-wise comparisons between all the treatment arms were conducted as secondary analyses.

C[C@H]1COc2c(N3CCN(C)CC3)c(F)cc3c(=O)c(C(=O)O)cn1c23 [Levofloxacin, levofloxacin]
MIC50 (168 h, MITT, 240 mg QD, Day 7, read-out: MIC50 (all organisms)): 4 µg/mL
MIC90 (168 h, MITT, 240 mg QD, Day 7, read-out: MIC90 (all organisms)): 16 µg/mL
MIC50 (168 h, MITT, combined 240 mg QD and BID, Day 7, read-out: Highest MIC, MIC50): 4 µg/mL
MIC90 (168 h, MITT, combined 240 mg QD and BID, Day 7, read-out: Highest MIC, MIC90): 16 µg/mL
MIC50 (168 h, MITT, combined 240 mg QD and BID, Day 7, read-out: MIC50 (all organisms)): 4 µg/mL
MIC90 (168 h, MITT, combined 240 mg QD and BID, Day 7, read-out: MIC90 (all organisms)): 16 µg/mL
MIC50 (168 h, Table 14, EE, 120 mg QD, Day 7, read-out: MIC50 (all organisms)): 8 µg/mL
MIC90 (168 h, Table 14, EE, 120 mg QD, Day 7, read-out: MIC90 (all organisms)): 32 µg/mL
MIC50 (168 h, Table 14, EE, 240 mg BID, Day 7, read-out: MIC50 (all organisms)): 4 µg/mL
MIC90 (168 h, Table 14, EE, 240 mg BID, Day 7, read-out: MIC90 (all organisms)): 32 µg/mL
MIC50 (168 h, Table 14, EE, 240 mg QD, Day 7, read-out: MIC50 (all organisms)): 4 µg/mL
MIC90 (168 h, Table 14, EE, 240 mg QD, Day 7, read-out: MIC90 (all organisms)): 16 µg/mL
MIC90 (168 h, Table 14, EE, combined 240 mg QD and BID, Day 7, read-out: MIC90 (all organisms)): 32 µg/mL
MIC (168 h, read-out: Highest MIC to levofloxacin, mean (SD), MITT, 120 mg QD, Day 7): 15.2 µg/mL
MIC (168 h, read-out: Highest MIC to levofloxacin, mean (SD), MITT, 240 mg BID, Day 7): 13 µg/mL
MIC (168 h, read-out: Highest MIC to levofloxacin, mean (SD), MITT, 240 mg QD, Day 7): 10.5 µg/mL
MIC (168 h, read-out: Highest MIC to levofloxacin, mean (SD), MITT, combined 240 mg QD and BID, Day 7): 11.8 µg/mL
MIC (168 h, read-out: MIC to levofloxacin (all organisms), mean (SD), EE, 120 mg QD, Day 7): 9.9 µg/mL
MIC (168 h, read-out: MIC to levofloxacin (all organisms), mean (SD), EE, 240 mg BID, Day 7): 8.8 µg/mL
MIC (168 h, read-out: MIC to levofloxacin (all organisms), mean (SD), EE, 240 mg QD, Day 7): 6.8 µg/mL
MIC (168 h, read-out: MIC to levofloxacin (all organisms), mean (SD), EE, combined 240 mg QD and BID, Day 7): 7.8 µg/mL
MIC (168 h, read-out: MIC to levofloxacin (all organisms), mean (SD), MITT, 120 mg QD, Day 7): 9.6 µg/mL
MIC (168 h, read-out: MIC to levofloxacin (all organisms), mean (SD), MITT, 240 mg BID, Day 7): 8.6 µg/mL
MIC (168 h, read-out: MIC to levofloxacin (all organisms), mean (SD), MITT, 240 mg QD, Day 7): 6.7 µg/mL
MIC (168 h, read-out: MIC to levofloxacin (all organisms), mean (SD), MITT, combined 240 mg QD and BID, Day 7): 7.6 µg/mL
MIC (168 h, read-out: MIC to levofloxacin (all organisms), mean (SD), Table 14, EE, 120 mg QD, Day 7): 15.7 µg/mL
MIC (168 h, read-out: MIC to levofloxacin (all organisms), mean (SD), Table 14, EE, 240 mg BID, Day 7): 13.1 µg/mL
MIC (168 h, read-out: MIC to levofloxacin (all organisms), mean (SD), Table 14, EE, 240 mg QD, Day 7): 10.9 µg/mL
MIC (168 h, read-out: MIC to levofloxacin (all organisms), mean (SD), Table 14, EE, combined 240 mg QD and BID, Day 7): 11.9 µg/mL
MIC50 (336 h, EE, 120 mg QD, Day 14, read-out: MIC50 (all organisms)): 4 µg/mL
MIC90 (336 h, EE, 120 mg QD, Day 14, read-out: MIC90 (all organisms)): 37 µg/mL
MIC50 (336 h, EE, 240 mg BID, Day 14, read-out: MIC50 (all organisms)): 4 µg/mL
MIC90 (336 h, EE, 240 mg BID, Day 14, read-out: MIC90 (all organisms)): 16 µg/mL
MIC50 (336 h, EE, 240 mg QD, Day 14, read-out: MIC50 (all organisms)): 4 µg/mL
MIC90 (336 h, EE, 240 mg QD, Day 14, read-out: MIC90 (all organisms)): 16 µg/mL
MIC50 (336 h, EE, combined 240 mg QD and BID, Day 14, read-out: MIC50 (all organisms)): 4 µg/mL
MIC90 (336 h, EE, combined 240 mg QD and BID, Day 14, read-out: MIC90 (all organisms)): 16 µg/mL
MIC50 (336 h, MITT, 120 mg QD, Day 14, read-out: Highest MIC, MIC50): 8 µg/mL
MIC90 (336 h, MITT, 120 mg QD, Day 14, read-out: Highest MIC, MIC90): 32 µg/mL
MIC50 (336 h, MITT, 120 mg QD, Day 14, read-out: MIC50 (all organisms)): 6 µg/mL
MIC90 (336 h, MITT, 120 mg QD, Day 14, read-out: MIC90 (all organisms)): 32 µg/mL
MIC50 (336 h, MITT, 240 mg BID, Day 14, read-out: Highest MIC, MIC50): 6 µg/mL
MIC90 (336 h, MITT, 240 mg BID, Day 14, read-out: Highest MIC, MIC90): 32 µg/mL
MIC50 (336 h, MITT, 240 mg BID, Day 14, read-out: MIC50 (all organisms)): 4 µg/mL
MIC90 (336 h, MITT, 240 mg BID, Day 14, read-out: MIC90 (all organisms)): 16 µg/mL
MIC50 (336 h, MITT, 240 mg QD, Day 14, read-out: Highest MIC, MIC50): 8 µg/mL
MIC90 (336 h, MITT, 240 mg QD, Day 14, read-out: Highest MIC, MIC90): 16 µg/mL
MIC50 (336 h, MITT, 240 mg QD, Day 14, read-out: MIC50 (all organisms)): 4 µg/mL
MIC90 (336 h, MITT, 240 mg QD, Day 14, read-out: MIC90 (all organisms)): 16 µg/mL
MIC50 (336 h, MITT, combined 240 mg QD and BID, Day 14, read-out: Highest MIC, MIC50): 8 µg/mL
MIC90 (336 h, MITT, combined 240 mg QD and BID, Day 14, read-out: Highest MIC, MIC90): 32 µg/mL
